These compounds were tested against T1, Voltage-gated potassium channel, IKs; KCNQ1(Kv7.1)/KCNE1(MinK) (Homo sapiens, UniProt P15382+P51787) (assay: Inhibition of human IKs-channel expressed in Xenopus oocytes,(Experiment 1)).
T1 sequence (P51787 whole entry): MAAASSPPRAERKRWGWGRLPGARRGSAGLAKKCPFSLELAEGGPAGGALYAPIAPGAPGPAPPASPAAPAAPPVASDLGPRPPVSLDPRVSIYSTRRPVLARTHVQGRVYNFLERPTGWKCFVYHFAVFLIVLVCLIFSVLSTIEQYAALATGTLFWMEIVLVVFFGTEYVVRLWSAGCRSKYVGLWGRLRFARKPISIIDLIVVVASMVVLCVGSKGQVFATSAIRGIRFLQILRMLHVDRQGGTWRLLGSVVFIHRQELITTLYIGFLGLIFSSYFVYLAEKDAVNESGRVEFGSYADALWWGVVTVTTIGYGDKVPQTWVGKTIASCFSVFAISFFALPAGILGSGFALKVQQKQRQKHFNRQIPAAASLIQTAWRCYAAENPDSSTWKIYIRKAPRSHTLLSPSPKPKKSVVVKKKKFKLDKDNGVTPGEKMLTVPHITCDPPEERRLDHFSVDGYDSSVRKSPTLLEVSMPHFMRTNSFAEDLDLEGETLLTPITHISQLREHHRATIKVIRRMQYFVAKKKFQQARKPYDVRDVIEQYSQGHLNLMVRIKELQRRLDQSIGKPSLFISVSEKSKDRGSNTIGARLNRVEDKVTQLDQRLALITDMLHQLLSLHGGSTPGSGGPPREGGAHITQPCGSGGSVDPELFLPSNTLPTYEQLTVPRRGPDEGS
Format: cell-based, Oocyte
In the case of `CCS(=O)(=O)N(C)[C@H]1c2cc(C#N)ccc2OC(C)(C)[C@@H]1O`, the IC50 is reported as 5000 nM. For `CCS(=O)(=O)N(C)[C@@H]1c2cc(C#N)ccc2OC(C)(C)[C@H]1O`, the IC50 was 44500 nM.

What follows are compounds tested against T1, Voltage-gated potassium channel, IKs; KCNQ1(Kv7.1)/KCNE1(MinK) (assay: Inhibition of human IKs-channel expressed in Xenopus oocytes).
Format: cell-based, Oocyte
`CCS(=O)(=O)N(C)[C@@H]1c2cc(F)ccc2OC(C)(C)[C@H]1O` was tested, and the IC50 was 2200 nM. Compound `CCS(=O)(=O)N(C)C1c2ccccc2OC(C)(C)C1O` (configuration not stated) has an IC50 of 3100 nM. In the case of `CCS(=O)(=O)N(C)C1c2cc(C#N)ccc2OC(C)(C)C1O` (configuration not stated), the IC50 is reported as 6900 nM. `CN(C1c2cc(OCc3ccccc3)ccc2OC(C)(C)C1O)S(C)(=O)=O` (configuration not stated) showed an IC50 of 200 nM. `CN(C1c2cc(Cl)ccc2OC(C)(C)C1O)S(C)(=O)=O` (configuration not stated) showed an IC50 of 1100 nM. Compound `CCS(=O)(=O)N(C)[C@H]1c2cc(OCc3ccccc3)ccc2OC(C)(C)[C@@H]1O` has an IC50 of 50 nM. `CCS(=O)(=O)N(C)[C@@H]1c2cc(OCc3ccccc3)ccc2OC(C)(C)[C@H]1O` was tested, and the IC50 was 400 nM. Compound `CCCCS(=O)(=O)N(C)C1c2cc(C#N)ccc2OC(C)(C)C1O` (configuration not stated) has an IC50 of 58000 nM. Work on `CCCCOc1ccc2c(c1)C(N(C)S(C)(=O)=O)C(O)C(C)(C)O2` (configuration not stated) yielded an IC50 of 250 nM. `CCS(=O)(=O)N(C)C1c2cc(F)ccc2OC(C)(C)C1O` (configuration not stated) was tested, and the IC50 was 1200 nM.

Source: ChEMBL document CHEMBL1134676, “Synthesis and activity of novel and selective I(Ks)-channel blockers” (J Med Chem, 2001)
